The values that follow come from patent publication US20100210664A1, “BENZENESULFONAMIDE COMPOUNDS SUITABLE FOR TREATING DISORDERS THAT RESPOND TO MODULATION OF THE DOPAMINE D3 RECEPTOR” (priority 2007, published 2010).

For test [1], the target named is T1, human dopamine D3 receptors (Homo sapiens, UniProt P35462).
T1 construct: expressed in transfected cells; host or cells: HEK-293 cells (membranes)
In words: Dopamine D3 receptor binding, displacement of [125I]-iodosulpride. Particulars: membranes of HEK-293 cells stably expressing human D3; 0.1 nM [125I]-iodosulpride. How it is done: (§1) The substance to be tested was either dissolved in methanol/Chremophor® (BASF-AG) or in dimethyl sulfoxide and then diluted with water to the desired concentration.
(§2) Each assay mixture was run in triplicate.
The incubation buffer contained 50 mM tris, 120 mM NaCl, 5 mM KCl, 2 mM CaCl2, 2 mM MgCl2 and 0.1% bovine serum albumin, 10 μM quinolone and 0.1% ascorbic acid (prepared fresh daily). The buffer was adjusted to pH 7.4 with HCl.
(§3) After having been incubated at 25° C. for 60 minutes, the assay mixtures were filtered through a Whatman GF/B glass fiber filter under vacuum using a cell collecting device. The filters were transferred to scintillation viols using a filter transfer system. After 4 ml of Ultima Gold® (Packard) have been added, the samples were shaken for one hour and the radioactivity was then counted in a Beta-Counter (Packard, Tricarb 2000 or 2200CA). The cpm values were converted into dpm using a standard quench series and the program belonging to the instrument.
(§4) The inhibition curves were analyzed by means of iterative nonlinear regression analysis using the Statistical Analysis System (SAS) which is similar to the “LIGAND” program described by Munson and Rodbard.

The target of test [2] is T2, human dopamine D2L receptors (long isoform) (Homo sapiens, UniProt P14416).
T2 construct: expressed in transfected cells; host or cells: HEK-293 cells (membranes)
In words: Dopamine D2L receptor binding, displacement of [125I] iodospiperone. Particulars: ratio Ki(D2L)/Ki(D3); HEK-293 membranes. How it is done:
as §1, §2
The incubation buffer contained 50 mM tris, 120 mM NaCl, 5 mM KCl, 2 mM CaCl2, 2 mM MgCl2 and 0.1% bovine serum albumin. The buffer was adjusted to pH 7.4 with HCl.
as §3, §4
(In a radioligand displacement assay an active substance lowers the binding of a labelled ligand.)

What is called Ki is a dissociation constant, usually derived from enzyme kinetics or from competition with a known ligand. Read a high Ki as lower affinity.

T1 sequence (P35462 whole entry): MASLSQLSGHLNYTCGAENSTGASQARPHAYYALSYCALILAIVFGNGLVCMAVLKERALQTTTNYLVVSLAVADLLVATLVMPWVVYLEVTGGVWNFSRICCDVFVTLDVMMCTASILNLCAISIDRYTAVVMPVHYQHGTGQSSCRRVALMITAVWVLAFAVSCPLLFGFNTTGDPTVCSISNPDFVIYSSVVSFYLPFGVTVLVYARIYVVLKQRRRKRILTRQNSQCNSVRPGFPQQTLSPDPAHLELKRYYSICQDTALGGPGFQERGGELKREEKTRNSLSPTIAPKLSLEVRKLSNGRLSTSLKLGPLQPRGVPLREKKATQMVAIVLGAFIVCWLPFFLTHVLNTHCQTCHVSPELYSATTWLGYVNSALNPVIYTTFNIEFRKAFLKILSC
T2 sequence (P14416 whole entry, canonical isoform): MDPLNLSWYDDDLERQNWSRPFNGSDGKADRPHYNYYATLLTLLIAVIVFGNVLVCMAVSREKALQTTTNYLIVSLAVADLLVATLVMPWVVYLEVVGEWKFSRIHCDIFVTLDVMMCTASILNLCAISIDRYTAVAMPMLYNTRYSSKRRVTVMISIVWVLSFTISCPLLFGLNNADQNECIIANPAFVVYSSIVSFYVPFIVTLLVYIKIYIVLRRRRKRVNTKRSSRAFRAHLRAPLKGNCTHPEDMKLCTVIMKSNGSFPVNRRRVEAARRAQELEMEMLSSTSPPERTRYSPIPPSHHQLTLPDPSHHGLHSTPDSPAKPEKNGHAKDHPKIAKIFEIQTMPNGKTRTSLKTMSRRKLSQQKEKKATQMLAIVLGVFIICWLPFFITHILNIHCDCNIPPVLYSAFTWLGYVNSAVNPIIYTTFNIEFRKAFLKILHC

For `Cc1nc(N2CCN[C@@H](C)C2)ccc1NS(=O)(=O)c1ccc([C@H](C)CF)cc1` [Example 1, 4-((S)-2-Fluoro-1-methyl-ethyl)-N-[2-methyl-6-((S)-3-methyl-piperazin-1-yl)-pyridin-3-yl]-benzenesulfonamide], in test [1], the Ki is below 10 nM. In test [2], the “Selectivity vs. D2L, Ki(D2L)/Ki(D3)” value is given as above 50.
The matching figures for `Cc1nc(N2CCN[C@@H](C)C2)ccc1NS(=O)(=O)c1ccc([C@@H](C)CF)cc1` [Example 2, 4-((R)-2-Fluoro-1-methyl-ethyl)-N-[2-methyl-6-((S)-3-methyl-piperazin-1-yl)-pyridin-3-yl]-benzenesulfonamide]: below 10 nM and above 50.
`Cc1nc(N2CCNCC2)ccc1NS(=O)(=O)c1ccc([C@@H](C)CF)cc1` [Example 5, 4-((R)-2-Fluoro-1-methyl-ethyl)-N-[2-methyl-6-piperazin-1-yl-pyridin-3-yl]-benzenesulfonamide] had a Ki in test [1] below 10 nM. Further, the “Selectivity vs. D2L, Ki(D2L)/Ki(D3)” value in test [2] is listed as above 50.
The like results for `Cc1nc(N2CCNCC2)ccc1NS(=O)(=O)c1ccc([C@H](C)CF)cc1` [Example 6, 4-((S)-2-Fluoro-1-methyl-ethyl)-N-[2-methyl-6-piperazin-1-yl-pyridin-3-yl]-benzenesulfonamide] were, in that order, below 10 nM and above 50.
Turning to `Cc1nc(N2CCNCC2)c(Br)cc1NS(=O)(=O)c1ccc([C@H](C)CF)cc1` [Example 7, N-(5-Bromo-2-methyl-6-piperazin-1-yl-pyridin-3-yl)-4-((S)-2-fluoro-1-methyl-ethyl)-benzenesulfonamide, reference compound], the inhibitory constant (Ki) in test [1] is below 1000 nM. Moreover, the “Selectivity vs. D2L, Ki(D2L)/Ki(D3)” value in test [2] is recorded as above 10.
With `Cc1nc(N2CCNCC2)ccc1NS(=O)(=O)c1ccc(C(C)C(F)F)cc1` (centres unmarked) [Example 8, 4-(2,2-Difluoro-1-methyl-ethyl)-N-(2-methyl-6-piperazin-1-yl-pyridin-3-yl)-benzenesulfonamide], the inhibition constant Ki in test [1] was below 10 nM. For the same molecule, in test [2], the “Selectivity vs. D2L, Ki(D2L)/Ki(D3)” value was above 50.
In test [1], `Cc1nc(N2CCNCC2)ccc1NS(=O)(=O)c1ccc([C@H](C)C(F)F)cc1` [Example 9, 4-((S)-2,2-Difluoro-1-methyl-ethyl)-N-(2-methyl-6-piperazin-1-yl-pyridin-3-yl)-benzenesulfonamide] had a Ki below 10 nM. Besides, the “Selectivity vs. D2L, Ki(D2L)/Ki(D3)” value in test [2] was above 50.
The like results for `Cc1nc(N2CCNCC2)ccc1NS(=O)(=O)c1ccc([C@@H](C)C(F)F)cc1` [Example 10, 4-((R)-2,2-Difluoro-1-methyl-ethyl)-N-(2-methyl-6-piperazin-1-yl-pyridin-3-yl)-benzenesulfonamide] were, in that order, below 10 nM and above 50.
For `Cc1nc(N2CCNCC2)ccc1NS(=O)(=O)c1ccc(C(C)C(F)(F)F)cc1` (centres unmarked) [Example 11, 4-(2,2,2-Trifluoro-1-methyl-ethyl)-N-(2-methyl-6-piperazin-1-yl-pyridin-3-yl)-benzenesulfonamide], the inhibition constant (Ki) in test [1] is below 10 nM. Further, in test [2], the “Selectivity vs. D2L, Ki(D2L)/Ki(D3)” value is on record as above 50.
The matching figures for `Cc1nc(N2CCNCC2)ccc1NS(=O)(=O)c1ccc([C@@H](C)C(F)(F)F)cc1` [Example 12, 4-((R)-2,2,2-Trifluoro-1-methyl-ethyl)-N-(2-methyl-6-piperazin-1-yl-pyridin-3-yl)-benzenesulfonamide]: below 10 nM and above 50.
In turn, `Cc1nc(N2CCNCC2)ccc1NS(=O)(=O)c1ccc([C@H](C)C(F)(F)F)cc1` [Example 13, 4-((S)-2,2,2-Trifluoro-1-methyl-ethyl)-N-(2-methyl-6-piperazin-1-yl-pyridin-3-yl)-benzenesulfonamide] showed a Ki in test [1] below 10 nM. In addition, in test [2], the “Selectivity vs. D2L, Ki(D2L)/Ki(D3)” value is recorded as above 50.
The matching figures for `COc1nc(N2CCNCC2)ccc1NS(=O)(=O)c1ccc([C@@H](C)CF)cc1` [Example 14, 4-((R)-2-Fluoro-1-methyl-ethyl)-N-(2-methoxy-6-piperazin-1-yl-pyridin-3-yl)-benzenesulfonamide]: below 10 nM and above 50.
The like results for `COc1nc(N2CCNCC2)ccc1NS(=O)(=O)c1ccc([C@H](C)CF)cc1` [Example 15, 4-((S)-2-Fluoro-1-methyl-ethyl)-N-(2-methoxy-6-piperazin-1-yl-pyridin-3-yl)-benzenesulfonamide] were, in that order, below 10 nM and above 50.
The like results for `COc1nc(N2CCNCC2)ccc1NS(=O)(=O)c1ccc(C(C)C(F)F)cc1` (centres unmarked) [Example 16, 4-(2,2-Difluoro-1-methyl-ethyl)-N-(2-methoxy-6-piperazin-1-yl-pyridin-3-yl)-benzenesulfonamide] were, in that order, below 10 nM and above 50.
Take `COc1nc(N2CCNCC2)ccc1NS(=O)(=O)c1ccc(C(C)C(F)(F)F)cc1` (centres unmarked) [Example 17, N-(2-Methoxy-6-piperazin-1-yl-pyridin-3-yl)-4-(2,2,2-trifluoro-1-methyl-ethyl)-benzenesulfonamide]: the Ki in test [1] was below 10 nM. For the same molecule, in test [2], the “Selectivity vs. D2L, Ki(D2L)/Ki(D3)” value was above 50.
The like results for `COc1nc(N2CCNCC2)ccc1NS(=O)(=O)c1ccc([C@H](C)C(F)(F)F)cc1` [Example 18, N-(2-Methoxy-6-piperazin-1-yl-pyridin-3-yl)-4-((S)-2,2,2-trifluoro-1-methyl-ethyl)-benzenesulfonamide] were, in that order, below 10 nM and above 50.
